The target of assay [1] is T1, equilibrative nucleoside transporter 4 (hENT4) (Homo sapiens, UniProt Q7RTT9).
T1 construct: gene SLC29A4
T1 sequence (Q7RTT9 1-530): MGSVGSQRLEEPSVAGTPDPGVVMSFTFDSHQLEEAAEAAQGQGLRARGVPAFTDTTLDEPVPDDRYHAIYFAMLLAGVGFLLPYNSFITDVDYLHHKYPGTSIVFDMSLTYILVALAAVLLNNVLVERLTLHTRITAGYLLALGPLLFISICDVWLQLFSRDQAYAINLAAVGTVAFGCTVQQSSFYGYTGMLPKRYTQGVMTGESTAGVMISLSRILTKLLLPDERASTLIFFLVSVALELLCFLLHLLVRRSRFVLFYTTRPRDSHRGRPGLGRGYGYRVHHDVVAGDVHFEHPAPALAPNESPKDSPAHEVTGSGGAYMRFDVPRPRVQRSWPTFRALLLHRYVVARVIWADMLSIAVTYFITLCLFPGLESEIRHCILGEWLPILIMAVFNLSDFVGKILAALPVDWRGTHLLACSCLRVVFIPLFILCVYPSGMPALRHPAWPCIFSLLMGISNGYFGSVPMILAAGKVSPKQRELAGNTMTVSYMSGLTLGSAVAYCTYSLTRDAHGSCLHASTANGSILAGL
The assay can be described thus: radiolabelled substrate uptake kinetics (Km, pH […] high-affinity component) and efflux in PK15-hENT4 cells. It counts as cell-based.

In assay [2] the target is T1, equilibrative nucleoside transporter 4 (hENT4). Kind of assay: inhibition of [3H]2-chloroadenosine uptake at pH […] in PK15-hENT4 cells. Type of assay: cell-based.

Read-outs that look alike come from different tables or passages of the source.

By Km is commonly meant the concentration of substrate that gives half-maximal velocity. Consider `Nc1nc(Cl)nc2c1ncn2[C@@H]1O[C@H](CO)[C@@H](O)[C@H]1O` [2-CADO, 2-chloroadenosine], for which, in assay [1], the Km was around 50 µM.

For orientation: IC50 means the concentration at which inhibition is half-maximal. As for `CCN1/C(=C/c2ccc3ccccc3[n+]2CC)C=Cc2ccccc21` [D22, decynium 22], the IC50 in assay [2] (read-out: IC50) is around 2300 nM.

`C[n+]1ccc(-c2ccccc2)cc1` [MPP+, MPP^+] displayed an IC50 in assay [2] of 220000 nM.

For TC-T6000, the IC50 in assay [2] (read-out: IC50) is around 2300 nM.

These data come from publication PMC6753126, “Bidirectional transport of 2-chloroadenosine by equilibrative nucleoside transporter 4 (hENT4): Evidence for allosteric kinetics at acidic pH” (Scientific Reports, 2019).
